Tests used:
XIAP BIR-3 = target: T1, XIAP BIR-3 (Homo sapiens, UniProt P98170); test: Fluorescence polarization binding affinity to XIAP BIR-3 (competition with AbuRPF-K(5-Fam)-NH2); details: 5 nM labeled peptide, 40 nM BIR3, 15 min at RT, pH 7.5; reported as ranges
T1 construct: 40 nM of the respective IAP BIR3
Method: (§1) The binding affinities of the compounds are reported as a KD value (μM). Briefly, various concentrations of test peptides were mixed with 5 nM of the fluorescently labeled peptide (i.e., a mutated N-terminal Smac peptide—AbuRPF-K(5-Fam)-NH2) and 40 nM of the respective IAP BIR3 for 15 min at RT in […] of 0.1M Potassium Phosphate buffer, pH 7.5 containing […] bovine g-globulin. Following incubation, the polarization values (mP) were measured on a Victor2V (available from PerkinElmer Life Sciences) using a 485 nm excitation filter and a 520 nm emission filter. The reported KD values are supplied as ranges (A=<0.1 μM, B=0.1 μM to 1 μM, C>1 μM to 10 μM, D=>10 μM).

cIAP-1 BIR-3 = cIAP-1 BIR-3 (Homo sapiens, UniProt Q13490); test: Fluorescence polarization binding affinity to cIAP-1 BIR-3 (competition with AbuRPF-K(5-Fam)-NH2); details: 5 nM labeled peptide, 40 nM BIR3, 15 min at RT, pH 7.5; reported as ranges; read-out: KD (c-IAP-1 BIR3)
Chain of cIAP-1 BIR-3 (Q13490 266-352 limits assumed): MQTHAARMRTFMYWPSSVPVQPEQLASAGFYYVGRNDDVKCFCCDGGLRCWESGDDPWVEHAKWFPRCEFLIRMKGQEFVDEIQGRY
Method: as §1

SK-OV-3 cells = test: Growth inhibition of ovarian cancer cell line SK-OV-3 (MTT assay, cell survival); type: cell-based; details: Homo sapiens, drug concentration that results in 50% cell survival, 72 hrs incubation, reported as ranges
Method: Compounds of the invention also were tested for their ability to inhibit the growth of an ovarian cancer cell line, SK-OV-3. A known assay previously used for measuring cell growth (as described in Hansen, M. B., Nielsen, S. E., and Berg, K. (1989) J. Immunol. Methods 119, 203-210 and incorporated herein by reference in its entirety) was used. Briefly, SK-OV-3 cells are seeded in 96-well plates in McCoy's medium containing 10% fetal bovine serum albumin (5,000 per well) and incubated overnight at 37° C. The next day, test compounds are added at various concentrations (0.003-10 μM) and the plates are incubated at 37° C. for an additional 72 hrs. This incubation time was considered to be optimal for measuring inhibitory effects of the different compounds tested. 50 microliters of 5 mg/mL MTT reagent is added to each well and the plates are incubated at 37° C. for another three (3) hours. At the end of the three (3) hour incubation period, 50 microliters of DMSO is added to each well to dissolve cells and the optical density (OD) of the wells is measured with a microplate reader (Victor^2 1420, Wallac, Finland) at 535 nm. Cell survival (CS) was calculated using the following equation: CS=(OD treated well/mean OD control wells)×100%.
The CC50 (reported in the following tables), is defined as the drug concentration that results in 50% cell survival (CS), and is derived by calculating the point where the dose-response curve crosses the 50% CS point using GraphPad Prism. The reported CC50 values are supplied as ranges (A=<0.1 μM, B=0.1 μM to 1 μM, C=>1 μM to 10 μM, D=>10 μM).

T1 sequence (P98170 241-356 limits assumed): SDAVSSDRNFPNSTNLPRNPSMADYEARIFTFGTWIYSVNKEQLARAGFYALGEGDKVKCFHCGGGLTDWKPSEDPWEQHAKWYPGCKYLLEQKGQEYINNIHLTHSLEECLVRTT

Kd (XIAP BIR-3) [nM] | Kd (cIAP-1 BIR-3) [nM] | SMILES | CC50 (SK-OV-3 cells) [nM]
< 100 | < 100 | CN[C@@H](C)C(=O)N[C@H](C(=O)N1CC[C@@H]2[C@H]1[C@@H](c1c[nH]c3ccc(F)cc13)CN2C(C)=O)C1CCCCC1 [Example 70, N-{2-[4-Acetyl-6-(5-fluoro-1H-indol-3-yl)-hexahydro-pyrrolo[3,2-b]pyrrol-1-yl]-1-cyclohexyl-2-oxo-ethyl}-2-methylamino-propionamide] | < 100
< 100 | < 100 | CN[C@@H](C)C(=O)N[C@H](C(=O)N1CC[C@@H]2[C@H]1[C@@H](c1c[nH]c3cc(F)ccc13)CN2Cc1ncc(C)s1)C1CCCCC1 [Example 23, N-{1-Cyclohexyl-2-[6-(6-fluoro-1H-indol-3-yl)-4-(5-methyl-thiazol-2-ylmethyl)-hexahydro-pyrrolo[3,2-b]pyrrol-1-yl]-2-oxo-ethyl}-2-methylamino-propionamide] | < 100
< 100 | < 100 | CN[C@@H](C)C(=O)NC(C)C(=O)N1CC[C@@H]2[C@H]1[C@@H](c1c[nH]c3cc(F)ccc13)CN2C(C)=O (stereo partly drawn) [Example 95] | 100 to 1000
> 10000 | 100 to 1000 | CN[C@@H](C)C(=O)N[C@H](C(=O)N1CC[C@H]2NC[C@@H](c3c[nH]c4ccccc34)[C@H]21)[C@@H](C)OC [Example 89] | > 10000
100 to 1000 | < 100 | CN[C@@H](C)C(=O)N[C@@H](COC)C(=O)N1CC[C@@H]2[C@H]1[C@@H](c1c[nH]c3cc(F)ccc13)CN2C(C)=O [Example 64, N-{2-[4-Acetyl-6-(6-fluoro-1H-indol-3-yl)-hexahydro-pyrrolo[3,2-b]pyrrol-1-yl]-1-methoxymethyl-2-oxo-ethyl}-2-methylamino-propionamide] | 100 to 1000
< 100 | < 100 | CN[C@@H](C)C(=O)N[C@H](C(=O)N1CC[C@@H]2[C@H]1[C@@H](c1c[nH]c3cc(F)ccc13)CN2C(C)=O)C(C)(C)C [Example 62, N-{1-[4-Acetyl-6-(6-fluoro-1H-indol-3-yl)-hexahydro-pyrrolo[3,2-b]pyrrole-1-carbonyl]-2,2-dimethyl-propyl}-2-methylamino-propionamide] | < 100
< 100 | < 100 | CN[C@@H](C)C(=O)N[C@H](C(=O)N1CC[C@@H]2[C@H]1[C@@H](c1c[nH]c3cc(F)ccc13)CN2C(=O)OC)C1CCCCC1 [Example 36, 4-[2-Cyclohexyl-2-(2-methylamino-propionylamino)-acetyl]-3-(6-fluoro-1H-indol-3-yl)-hexahydro-pyrrolo[3,2-b]pyrrole-1-carboxylic acid methyl ester] | < 100
1000 to 10000 | < 100 | CN[C@@H](C)C(=O)N[C@H](C(=O)N1CC[C@@H]2[C@H]1[C@@H](c1c[nH]c3cc(F)ccc13)CN2C(C)C)C1CCCCC1 [Example 19, N-{1-Cyclohexyl-2-[6-(6-fluoro-1H-indol-3-yl)-4-isopropyl-hexahydro-pyrrolo[3,2-b]pyrrol-1-yl]-2-oxo-ethyl}-2-methylamino-propionamide] | 100 to 1000
1000 to 10000 | 100 to 1000 | CN[C@@H](C)C(=O)N[C@H](C(=O)N1CC[C@@H]2[C@H]1[C@@H](c1c[nH]c3ccccc13)CN2C(C)C)C1CCCCC1 [Example 98] | 100 to 1000
> 10000 | 1000 to 10000 | CN[C@@H](C)C(=O)N[C@@H](COC)C(=O)N1CC[C@@H]2[C@H]1[C@H](c1c[nH]c3cc(F)ccc13)CN2S(C)(=O)=O [Example 53, N-{2-[6-(6-Fluoro-1H-indol-3-yl)-4-methanesulfonyl-hexahydro-pyrrolo[3,2-b]pyrrol-1-yl]-1-methoxymethyl-2-oxo-ethyl}-2-methylamino-propionamide] | > 10000
< 100 | < 100 | CN[C@@H](C)C(=O)N[C@H](C(=O)N1CC[C@@H]2[C@H]1[C@@H](c1c[nH]c3cc(F)ccc13)CN2C(C)=O)C(C)C [Example 61, N-{1-[4-Acetyl-6-(6-fluoro-1H-indol-3-yl)-hexahydro-pyrrolo[3,2-b]pyrrole-1-carbonyl]-2-methyl-propyl}-2-methylamino-propionamide] | < 100
100 to 1000 | < 100 | CN[C@@H](C)C(=O)N[C@H](C(=O)N1CC[C@@H]2[C@H]1[C@@H](c1c[nH]c3cc(F)ccc13)CN2C)C1CCCCC1 [Example 17, N-{1-Cyclohexyl-2-[6-(6-fluoro-1H-indol-3-yl)-4-methyl-hexahydro-pyrrolo[3,2-b]pyrrol-1-yl]-2-oxo-ethyl}-2-methylamino-propionamide] | 100 to 1000
< 100 | < 100 | CN[C@@H](C)C(=O)N[C@@H](CO)C(=O)N1CC[C@@H]2[C@H]1[C@@H](c1c[nH]c3cc(F)ccc13)CN2c1ncccn1 [Example 80, N-{2-[6-(6-Fluoro-1H-indol-3-yl)-4-pyrimidin-2-yl-hexahydro-pyrrolo[3,2-b]pyrrol-1-yl]-1-hydroxymethyl-2-oxo-ethyl}-2-methylamino-propionamide] | < 100
1000 to 10000 | 100 to 1000 | CN[C@@H](C)C(=O)N[C@H](C(=O)N1CC[C@@H]2[C@H]1[C@H](c1c[nH]c3cc(F)ccc13)CN2S(C)(=O)=O)C1CCCCC1 [Example 44] | 1000 to 10000
1000 to 10000 | 100 to 1000 | CN[C@@H](C)C(=O)N[C@@H](COC)C(=O)N1CC[C@@H]2[C@H]1[C@@H](c1c[nH]c3cc(F)ccc13)CN2C1CCCC1 [Example 13] | 1000 to 10000
< 100 | < 100 | CN[C@@H](C)C(=O)N[C@@H](CO)C(=O)N1CC[C@@H]2[C@H]1[C@@H](c1c[nH]c3cc(F)ccc13)CN2S(C)(=O)=O [Example 52, N-{2-[6-(6-Fluoro-1H-indol-3-yl)-4-methanesulfonyl-hexahydro-pyrrolo[3,2-b]pyrrol-1-yl]-1-hydroxymethyl-2-oxo-ethyl}-2-methylamino-propionamide] | 1000 to 10000
< 100 | < 100 | CN[C@@H](C)C(=O)N[C@@H](COC)C(=O)N1CC[C@@H]2[C@H]1[C@@H](c1c[nH]c3cc(F)ccc13)CN2c1ncccn1 [Example 81, N-{2-[6-(6-Fluoro-1H-indol-3-yl)-4-pyrimidin-2-yl-hexahydro-pyrrolo[3,2-b]pyrrol-1-yl]-1-methoxymethyl-2-oxo-ethyl}-2-methylamino-propionamide] | < 100
100 to 1000 | < 100 | CN[C@@H](C)C(=O)N[C@H](C(=O)N1CC[C@@H]2[C@H]1[C@@H](c1c[nH]c3cc(F)ccc13)CN2C1CCNCC1)C1CCCCC1 [Example 21, N-{1-Cyclohexyl-2-[6-(6-fluoro-1H-indol-3-yl)-4-piperidin-4-yl-hexahydro-pyrrolo[3,2-b]pyrrol-1-yl]-2-oxo-ethyl}-2-methylamino-propionamide] | > 10000
< 100 | < 100 | CN[C@@H](C)C(=O)N[C@H](C(=O)N1CC[C@@H]2[C@H]1[C@@H](c1c[nH]c3cc(F)ccc13)CN2Cc1ccccn1)C1CCCCC1 [Example 24, N-{1-Cyclohexyl-2-[6-(6-fluoro-1H-indol-3-yl)-4-pyridin-2-ylmethyl-hexahydro-pyrrolo[3,2-b]pyrrol-1-yl]-2-oxo-ethyl}-2-methylamino-propionamide] | < 100
< 100 | < 100 | CN[C@@H](C)C(=O)N[C@H](C(=O)N1CC[C@@H]2[C@H]1[C@@H](c1c[nH]c3ccc(F)cc13)CN2C(C)=O)C(C)C [Example 68, N-{1-[4-Acetyl-6-(5-fluoro-1H-indol-3-yl)-hexahydro-pyrrolo[3,2-b]pyrrole-1-carbonyl]-2-methyl-propyl}-2-methylamino-propionamide] | < 100

Reference: patent publication US8399683B2 (TetraLogic Pharmaceuticals, priority 2008, dated 2013)
